For six molecules, Ki and Tm results are on record in article doi:10.1101/2024.10.18.618978v3 (biorxiv, 2026).

The structures appear in SMILES notation.

One experiment addresses SAT1 (Homo sapiens, UniProt P21673). In words: colorimetric DTNB SSAT assay. Type of experiment: biochemical.
For experiment [1], the target named is T1, SpeG (Staphylococcus aureus, UniProt A0A0H2XGJ0).
T1 sequence (A0A0H2XGJ0 1-165): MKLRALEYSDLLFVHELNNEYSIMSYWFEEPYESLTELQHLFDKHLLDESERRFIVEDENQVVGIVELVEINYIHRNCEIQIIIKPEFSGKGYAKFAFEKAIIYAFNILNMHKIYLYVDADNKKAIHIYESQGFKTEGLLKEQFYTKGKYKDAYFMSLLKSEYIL
Kind of experiment: colorimetric DTNB SSAT assay. Type of experiment: biochemical.

Experiment [2] deals with T1, SpeG. In words: thermal shift assay. The format is binding. As to conditions: 1.6 μM SpeG, 3-fold dilution series of compound; Tm decreased.

SAT1, sequence (P21673 whole entry): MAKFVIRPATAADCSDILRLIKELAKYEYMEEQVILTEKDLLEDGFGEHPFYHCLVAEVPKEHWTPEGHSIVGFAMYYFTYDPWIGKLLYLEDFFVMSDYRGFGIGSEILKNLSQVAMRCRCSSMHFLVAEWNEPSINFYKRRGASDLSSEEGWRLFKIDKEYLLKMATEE

In general, Ki refers to a dissociation constant, usually derived from enzyme kinetics or from competition with a known ligand. In the case of `CCCCCCCCCCCCN` [OES2-0052], the Ki is 160 ± 50.4 µM on SAT1 and 160 ± 38.3 µM on SpeG [1].
On to `CCCCCCCCNCCCN` [OES2-0045], for which, on SAT1, the Ki turned out to be 228 ± 49.7 µM.
As for `CCCCCCCCCCN` [OES2-0077], the inhibition constant (Ki) at SAT1 is 743 ± 250 µM; on SpeG [1], 853 ± 238 µM.
`CCCCCCCCNCCN` [OES2-0085]: the Ki at SpeG [1] is 1270 ± 263 µM.
Same read-out and setting: in the case of `CCCCCCCCCCNCCN` [OES2-0086] it was 1200 ± 425 µM.
As for `CCCCCCCCCCCCNCCCN` [OES2-0017], the Tm result at SpeG [2] was “OES2-0017 titration decreased SpeG Tm”.
